Results taken from patent publication US20220354860A1, “HETEROCYCLIC DERIVATIVES AND USE THEREOF” (Fochon Pharmaceuticals, Ltd., priority 2019, published 2022).

Columns and labels:
[1] = biological target: T1, URAT1 (Homo sapiens, UniProt Q96S37); experiment: URAT1 inhibitor activity, 14C-uric acid uptake in HEK293-URAT1 cells; format: cell-based; details: URAT1 inhibition, 14C-Uric acid 5.0 μmol/L, 2 min
T1 sequence (Q96S37 1-553): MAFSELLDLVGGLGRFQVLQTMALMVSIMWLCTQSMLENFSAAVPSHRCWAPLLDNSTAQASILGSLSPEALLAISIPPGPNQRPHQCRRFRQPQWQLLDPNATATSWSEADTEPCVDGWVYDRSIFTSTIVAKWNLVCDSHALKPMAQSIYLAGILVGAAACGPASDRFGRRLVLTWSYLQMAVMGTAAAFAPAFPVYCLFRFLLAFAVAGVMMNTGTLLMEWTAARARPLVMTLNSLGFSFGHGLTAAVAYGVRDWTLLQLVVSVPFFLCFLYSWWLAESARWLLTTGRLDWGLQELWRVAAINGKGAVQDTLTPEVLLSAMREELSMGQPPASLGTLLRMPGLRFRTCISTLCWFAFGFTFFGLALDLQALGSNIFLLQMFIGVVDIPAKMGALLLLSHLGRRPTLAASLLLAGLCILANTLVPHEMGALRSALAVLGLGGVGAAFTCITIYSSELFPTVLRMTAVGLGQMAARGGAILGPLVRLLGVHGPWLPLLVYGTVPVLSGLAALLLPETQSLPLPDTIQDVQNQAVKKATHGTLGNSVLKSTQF
Description: The potency of the compounds of formula (I) as inhibitors of the URAT1 was determined as follow.
HEK293-URAT1 cell Lines were donated by Japan Fuji Biomedical Research Institute. Negative control cell of HEK293 (MOCK cells) which was transfected with pcDNA3.1 empty vector. HEK293-URAT1 cell lines and MOCK cell lines were cultured in complete growth medium consisting of DMEM supplemented with 10% FBS, penicillin and streptomycin.
Preparation of working solution: Each stock solutions was diluted to different concentrations (6, 20, 60, 200 and 600 μmol/L) with DMSO as 200× working solution, which was then diluted to 2× compound working solution with HBSS (Cl^− free) buffer. Radiolabeled substrate ^14C-Uric acid solution was diluted with HBSS (Cl^− free) buffer to obtain 2× working solution which was mixed with an equal volume of 2× compound working solution to obtain the mixture of radiolabeled substrate and compound working solution.
HER293-URAT1 and MOCK cells were seeded onto 24-well plates at the density of 1.5×10^6 cells per well. The cells were incubated at 37° C., 5% CO2 overnight. After cultured for approximately 2 to 3 days, cells were used for the experiments. The culture medium were removed from the wells, and cells were washed with HBSS (Cl^− free) and incubated in 37° C. HBSS (Cl^− free) for 10 min. HBSS was replaced with 500 μL of the mixture of radiolabeled substrate and compound working solution. The final concentration of ^14C-Uric acid in the assay was 5.0 μmol/L. Plates were incubated at 37° C., 5% CO2 for 2 min, and the reaction was stopped by the addition of pre-chilled HBSS (Cl^− free) by washing three times. 400 μL, NaOH (0.1 mmol/L) was added to lyse the cells and the cell lysate was collected to scintillation vials, and 3 ml scintillant (Aquasol-2, PerkinElmer) was added and after mixing completely, the radioactivity was counted by Tri-Carb 2910TR liquid scintillation counter. Each concentration of compounds, positive control and negative control were repeated in two wells (n=2). Inhibition % data were calculated using the formula:
Inhibition=[100×(U−U0)/(Uc−U0)]%, and analyzed using Prism5 software. • U0: Average of signals of MOCK cells; • Uc: Average of signals of radiolabeled substrate. The half inhibition concentration of the tested compounds to URAT1 were analyzed using Prism 5 software.

[2] = biological target: T2, CYP2C9 (Homo sapiens, UniProt P11712); experiment: CYP inhibition assay in human liver microsomes; format: in vitro ADME; details: human liver microsomes 0.200 mg/mL, 37° C. for 10 minutes
T2 construct: conducted using human liver microsomes; from tissue; host or cells: human liver microsomes
Description: The CYP inhibition assay was conducted using human liver microsomes at 0.200 mg/mL with a marker substrate for CYP2C9. The substrate concentrations employed were similar to published Michaelis-Menten constants (Km) for each of the respective reactions. The test compounds were added at 8 concentrations (0, 0.0500, 0.150, 0.500, 1.50, 5.00, 15.0, and 50.0 μM). A known inhibitor for the isozyme, at a single concentration (3.00 μM) in duplicates, was selected as the positive control. The reaction in the presence of the organic solvent instead of test compounds served as vehicle control. The final content of organic solvent in all the reactions was up to 0.5% DMSO and 0.5% methanol.
Reactions were initiated by adding NADPH followed by incubation at 37° C. for 10 minutes. And reactions were terminated by adding a 2-fold volume ice-cold acetonitrile with internal standards. Samples were processed and analyzed by liquid chromatography tandem mass spectrometry (LC-MS/MS).The results are given in the Table 4.

[3] = biological target: T1, URAT1; experiment: URAT1 inhibitor activity, MDCK cells; format: cell-based; parameters: host or cells: MDCK; details: URAT1 inhibition

T2 sequence (P11712 whole entry): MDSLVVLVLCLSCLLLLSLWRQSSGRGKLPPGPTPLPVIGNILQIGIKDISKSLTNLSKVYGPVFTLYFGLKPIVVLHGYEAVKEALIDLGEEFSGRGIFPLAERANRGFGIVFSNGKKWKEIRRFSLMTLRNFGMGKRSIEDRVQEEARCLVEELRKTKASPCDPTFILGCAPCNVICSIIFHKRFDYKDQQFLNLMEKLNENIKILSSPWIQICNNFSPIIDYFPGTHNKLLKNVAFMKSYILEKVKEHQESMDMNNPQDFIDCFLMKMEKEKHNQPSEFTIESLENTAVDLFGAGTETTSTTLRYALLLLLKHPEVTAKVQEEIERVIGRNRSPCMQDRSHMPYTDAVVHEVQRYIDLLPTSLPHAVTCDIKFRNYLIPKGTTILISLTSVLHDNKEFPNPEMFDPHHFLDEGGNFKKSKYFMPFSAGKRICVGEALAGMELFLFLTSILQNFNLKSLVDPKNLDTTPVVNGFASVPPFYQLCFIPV

SMILES	IC50 [1] [nM]	IC50 [2] [nM]	IC50 [3] [nM]
C[C@@H]1CN(C(=O)c2cc(Br)c(O)c(Br)c2)c2c(cnn2C)O1 [Example 1, (R)-(3,5-dibromo-4-hydroxyphenyl)(1,5-dimethyl-5,6-dihydropyrazolo[4,3-b][1,4]oxazin-7(1H)-yl)methanone]	62	15500	25
Cn1ncc2c1N(C(=O)c1cc(Br)c(O)c(Br)c1)CCO2 [Example 2, (3,5-Dibromo-4-hydroxyphenyl)(1-methyl-5,6-dihydropyrazolo[4,3-b][1,4]oxazin-7(1H)-yl)methanone]	69	> 50000	29
O=C(c1cc(Br)c(O)c(Br)c1)N1CCOc2cn[nH]c21 [Example 3, (3,5-dibromo-4-hydroxyphenyl)(5,6-dihydropyrazolo[4,3-b][1,4]oxazin-7(1H)-yl)methanone]	130		
C[C@H]1CN(C(=O)c2cc(Br)c(O)c(Br)c2)c2c(cnn2C)O1 [Example 5, (S)-(3,5-dibromo-4-hydroxyphenyl) (1,5-dimethyl-5,6-dihydropyrazolo[4,3-b][1,4]oxazin-7(1H)-yl)methanone]	40	18900	93
Cc1nn(C)c2c1OCCN2C(=O)c1cc(Br)c(O)c(Br)c1 [Example 10, (3,5-dibromo-4-hydroxyphenyl)(1,3-dimethyl-5,6-dihydropyrazolo[4,3-b] [1,4]oxazin-7(1H)-yl)methanone]	< 30	16200	85
Cn1ncc2c1N(C(=O)c1cc(Br)c(O)c(Br)c1)CCC2 [Example 11, (3,5-dibromo-4-hydroxyphenyl)(1-methyl-1,4,5,6-tetrahydro-7H-pyrazolo [3,4-b]pyridin-7-yl)methanone]	100		
Cn1ncc2c1N(C(=O)c1cc(Br)c(O)c(Br)c1)CC(C)(C)O2 [Example 12, (3,5-dibromo-4-hydroxyphenyl)(1,5,5-trimethyl-5,6-dihydropyrazolo[4,3-b] [1,4]oxazin-7(1H)-yl)methanone]			80
Cc1nn(C)c2c1OC(C)(C)CN2C(=O)c1cc(Br)c(O)c(Br)c1 [Example 13, (3,5-dibromo-4-hydroxyphenyl)(1,3,5,5-tetramethyl-5,6-dihydropyrazolo[4,3-b][1,4]oxazin-7(1H)-yl)methanone]			84
Cn1ncc2c1N(C(=O)c1cc(Cl)c(O)c(Cl)c1)CCO2 [Example 14, (3,5-dichloro-4-hydroxyphenyl)(1-methyl-5,6-dihydropyrazolo[4,3-b][1,4]oxazin-7(1H)-yl)methanone]			252
Cc1nn(C)c2c1O[C@@H](C)CN2C(=O)c1cc(Br)c(O)c(Br)c1 [Example 15, (S)-(3,5-dibromo-4-hydroxyphenyl) (1,3,5-trimethyl-5,6-dihydropyrazolo[4,3-b][1,4]oxazin-7(1H)-yl)methanone]			126
Cn1ncc2c1N(C(=O)c1cc(Br)c(O)c(Br)c1)CC1(CC1)O2 [Example 16, (3,5-dibromo-4-hydroxyphenyl)(1′-methyl-1′H-spiro[cyclopropane-1,5′-pyrazolo[4,3-b][1,4]oxazin]-7′(6′H)-yl) methanone]		4250	48
Cc1nn(C)c2c1OC1(CC1)CN2C(=O)c1cc(Br)c(O)c(Br)c1 [Example 17, (3,5-dibromo-4-hydroxyphenyl)(1′,3′-dimethyl-1′H-spiro[cyclopropane-1,5′-pyrazolo[4,3-b][1,4]oxazin]-7′(6′H)-yl)methanone]		10400	60
Cc1nn(C)c2c1O[C@H](C)CN2C(=O)c1cc(Br)c(O)c(Br)c1 [Example 18]		16000	37
Cn1cc2c(n1)N(C(=O)c1cc(Br)c(O)c(Br)c1)CCO2 [Example 19, (3,5-dibromo-4-hydroxyphenyl)(2-methyl-5,6-dihydropyrazolo[4,3-b][1,4]oxazin-7(2H)-yl)methanone]	339		
O=C(c1cc(Br)c(O)c(Br)c1)N1CCOc2[nH]ncc21 [Example 20, (3,5-dibromo-4-hydroxyphenyl)(5,6-dihydropyrazolo[3,4-b][1,4]oxazin-4(1H)-yl)methanone]	235		
Cn1ncc2c1OCCN2C(=O)c1cc(Br)c(O)c(Br)c1 [Example 21, (3,5-dibromo-4-hydroxyphenyl)(1-methyl-5,6-dihydropyrazolo[3,4-b][1,4]oxazin-4(1H)-yl)methanone]	297		
Cc1nn(C)c2c1SCCN2C(=O)c1cc(Br)c(O)c(Br)c1 [Example 23, (3,5-dibromo-4-hydroxyphenyl)(1,3-dimethyl-5,6-dihydropyrazolo[4,3-b][1,4]thiazin-7(1H)-yl)methanone]			189
